The experiment has as its system Mycobacterium tuberculosis. As to the kind of experiment: Antimycobacterial activity against Mycobacterium tuberculosis H37Rv. It counts as functional.

In ChEMBL document CHEMBL1151911, “A microwave-assisted facile regioselective Fischer indole synthesis and antitubercular evaluation of novel 2-aryl-3,4-dihydro-2H-thieno[3,2-b]indoles” (2009) one finds MIC data, which are given here for 26 compounds.

Values after ≈ are worked out from the molar mass of the structure shown.

As a reminder, the MIC is the lowest concentration found to suppress growth. Low readings indicate inhibition by little substance, high ones a need for much substance. The compound `Fc1ccc2[nH]c3c(c2c1)SC(c1ccccc1)C3` (stereo unspecified) had a minimal inhibitory concentration (MIC) of 6.25 µg/mL (≈ 23.2 µM).

Compound `Clc1ccc2[nH]c3c(c2c1)SC(c1ccccc1)C3` (stereo unspecified) displayed a minimal inhibitory concentration (MIC) of 12.5 µg/mL (≈ 43.7 µM).

Compound `Fc1cccc(C2Cc3[nH]c4ccccc4c3S2)c1` (stereo unspecified) registered an MIC of 3.13 µg/mL (≈ 11.6 µM).

In the case of `Clc1ccc(C2Cc3[nH]c4ccc(Cl)cc4c3S2)cc1` (stereo unspecified), the MIC came out at 12.5 µg/mL (≈ 39 µM).

For `Fc1ccc2[nH]c3c(c2c1)SC(c1ccc(Cl)cc1)C3` (stereo unspecified), the MIC was 1.56 µg/mL (≈ 5.14 µM).

In turn, `Cc1ccc(C2Cc3[nH]c4ccc(F)cc4c3S2)cc1` (stereo unspecified) came in with an MIC of 3.13 µg/mL (≈ 11 µM).

As for `c1ccc(C2Cc3[nH]c4ccccc4c3S2)cc1` (stereo unspecified), the MIC worked out at 25 µg/mL (≈ 99.5 µM).

In turn, `Clc1ccc2[nH]c3c(c2c1)SC(c1ccccc1Cl)C3` (stereo unspecified) came in with an MIC of 3.13 µg/mL (≈ 9.77 µM).

As for `CC(C)c1ccc(C2Cc3[nH]c4ccc(Cl)cc4c3S2)cc1` (stereo unspecified), it took 0.78 µg/mL (≈ 2.38 µM) to inhibit growth (MIC).

`Fc1ccc2[nH]c3c(c2c1)SC(c1ccccc1Cl)C3` (stereo unspecified) gave an MIC of 1.76 µg/mL (≈ 5.79 µM). Compared with the last compound, the MIC is about 2.3-fold higher.

For `CC(C)c1ccc(C2Cc3[nH]c4ccc(F)cc4c3S2)cc1` (stereo unspecified), 0.78 µg/mL (≈ 2.5 µM) was the least that counted as inhibitory (MIC).

Compound `Clc1ccc(C2Cc3[nH]c4ccccc4c3S2)c(Cl)c1` (stereo unspecified) came in with a minimal inhibitory concentration (MIC) of 1.76 µg/mL (≈ 5.5 µM). Against the preceding compound, the MIC is about 2.3-fold higher.

In turn, `Fc1ccc(C2Cc3[nH]c4ccc(Cl)cc4c3S2)cc1` (stereo unspecified) yielded a minimal inhibitory concentration (MIC) of 3.13 µg/mL (≈ 10.3 µM). Against the preceding compound, the MIC is about 1.8-fold higher.

As for `Cc1ccc(C2Cc3[nH]c4ccccc4c3S2)cc1` (stereo unspecified), the MIC was determined as 6.25 µg/mL (≈ 23.6 µM).

Compound `Clc1ccccc1C1Cc2[nH]c3ccccc3c2S1` (stereo unspecified) registered a minimum inhibitory concentration (MIC) of 6.25 µg/mL (≈ 21.9 µM).

For `Brc1ccccc1C1Cc2[nH]c3ccccc3c2S1` (stereo unspecified), the MIC amounted to 3.13 µg/mL (≈ 9.48 µM). This MIC is about 2-fold lower than that of the compound before.

Consider `Clc1ccc(C2Cc3[nH]c4ccc(Cl)cc4c3S2)c(Cl)c1` (stereo unspecified), for which the lowest concentration to inhibit growth (MIC) was 0.78 µg/mL (≈ 2.2 µM).

As for `Cc1ccc(C2Cc3[nH]c4ccc(Cl)cc4c3S2)cc1` (stereo unspecified), the MIC turned out to be 6.25 µg/mL (≈ 20.8 µM). This MIC is about 8-fold higher than that of the compound before.

Compound `Clc1ccc(C2Cc3[nH]c4ccccc4c3S2)cc1` (stereo unspecified) came in with an MIC of 12.5 µg/mL (≈ 43.7 µM).

In turn, `O=[N+]([O-])c1cccc(C2Cc3[nH]c4ccccc4c3S2)c1` (stereo unspecified) yielded an MIC of 1.76 µg/mL (≈ 5.94 µM).

`CC(C)c1ccc(C2Cc3[nH]c4ccccc4c3S2)cc1` (stereo unspecified) yielded an MIC of 0.78 µg/mL (≈ 2.66 µM).

In turn, `Fc1ccc2[nH]c3c(c2c1)SC(c1ccc(Cl)cc1Cl)C3` (stereo unspecified) displayed an MIC of 0.4 µg/mL (≈ 1.18 µM).

In the case of `CC[C@@H](CO)NCCN[C@@H](CC)CO` [ETHAMBUTOL], the MIC worked out at 1.56 µg/mL (≈ 7.64 µM).

On to `NNC(=O)c1ccncc1` [ISONIAZID], for which it took 0.05 µg/mL (≈ 0.365 µM) to inhibit growth (MIC).

For the compound `NC(=O)c1cnccn1` [PYRAZINAMIDE], inhibition of growth (MIC) required 6.25 µg/mL (≈ 50.8 µM).

The compound `CO[C@H]1/C=C/O[C@@]2(C)Oc3c(C)c(O)c4c(O)c(c(/C=N/N5CCN(C)CC5)c(O)c4c3C2=O)NC(=O)/C(C)=C\C=C\[C@H](C)[C@H](O)[C@@H](C)[C@@H](O)[C@@H](C)[C@H](OC(C)=O)[C@@H]1C` [RIFAMPIN] yielded a minimal inhibitory concentration (MIC) of 0.1 µg/mL (≈ 0.122 µM).
